Reference: patent US9505767B2, “Pyrazolo[1,5-A]pyrimidin-7(4H)-onehistone demethylase inhibitors” (Genentech, Inc., priority 2013, dated 2016)

Key:
KDM5A [1] = target: T1, KDM5A (Homo sapiens, UniProt P29375); assay: KDM5A Demethylase Assay (TR-FRET Assay-C); type: biochemical; settings: full length recombinant Flag tagged KDM5A, 2 nM, HEPES pH 7.0, 1 μM α-ketoglutarate, read-out: C KDM5A HTRF (IC50)
T1 construct: Full length recombinant Flag tagged KDM5A protein was purified from Sf9 insect cells; Flag; made in house; host or cells: Sf9 insect cells
T1 sequence (P29375 whole entry): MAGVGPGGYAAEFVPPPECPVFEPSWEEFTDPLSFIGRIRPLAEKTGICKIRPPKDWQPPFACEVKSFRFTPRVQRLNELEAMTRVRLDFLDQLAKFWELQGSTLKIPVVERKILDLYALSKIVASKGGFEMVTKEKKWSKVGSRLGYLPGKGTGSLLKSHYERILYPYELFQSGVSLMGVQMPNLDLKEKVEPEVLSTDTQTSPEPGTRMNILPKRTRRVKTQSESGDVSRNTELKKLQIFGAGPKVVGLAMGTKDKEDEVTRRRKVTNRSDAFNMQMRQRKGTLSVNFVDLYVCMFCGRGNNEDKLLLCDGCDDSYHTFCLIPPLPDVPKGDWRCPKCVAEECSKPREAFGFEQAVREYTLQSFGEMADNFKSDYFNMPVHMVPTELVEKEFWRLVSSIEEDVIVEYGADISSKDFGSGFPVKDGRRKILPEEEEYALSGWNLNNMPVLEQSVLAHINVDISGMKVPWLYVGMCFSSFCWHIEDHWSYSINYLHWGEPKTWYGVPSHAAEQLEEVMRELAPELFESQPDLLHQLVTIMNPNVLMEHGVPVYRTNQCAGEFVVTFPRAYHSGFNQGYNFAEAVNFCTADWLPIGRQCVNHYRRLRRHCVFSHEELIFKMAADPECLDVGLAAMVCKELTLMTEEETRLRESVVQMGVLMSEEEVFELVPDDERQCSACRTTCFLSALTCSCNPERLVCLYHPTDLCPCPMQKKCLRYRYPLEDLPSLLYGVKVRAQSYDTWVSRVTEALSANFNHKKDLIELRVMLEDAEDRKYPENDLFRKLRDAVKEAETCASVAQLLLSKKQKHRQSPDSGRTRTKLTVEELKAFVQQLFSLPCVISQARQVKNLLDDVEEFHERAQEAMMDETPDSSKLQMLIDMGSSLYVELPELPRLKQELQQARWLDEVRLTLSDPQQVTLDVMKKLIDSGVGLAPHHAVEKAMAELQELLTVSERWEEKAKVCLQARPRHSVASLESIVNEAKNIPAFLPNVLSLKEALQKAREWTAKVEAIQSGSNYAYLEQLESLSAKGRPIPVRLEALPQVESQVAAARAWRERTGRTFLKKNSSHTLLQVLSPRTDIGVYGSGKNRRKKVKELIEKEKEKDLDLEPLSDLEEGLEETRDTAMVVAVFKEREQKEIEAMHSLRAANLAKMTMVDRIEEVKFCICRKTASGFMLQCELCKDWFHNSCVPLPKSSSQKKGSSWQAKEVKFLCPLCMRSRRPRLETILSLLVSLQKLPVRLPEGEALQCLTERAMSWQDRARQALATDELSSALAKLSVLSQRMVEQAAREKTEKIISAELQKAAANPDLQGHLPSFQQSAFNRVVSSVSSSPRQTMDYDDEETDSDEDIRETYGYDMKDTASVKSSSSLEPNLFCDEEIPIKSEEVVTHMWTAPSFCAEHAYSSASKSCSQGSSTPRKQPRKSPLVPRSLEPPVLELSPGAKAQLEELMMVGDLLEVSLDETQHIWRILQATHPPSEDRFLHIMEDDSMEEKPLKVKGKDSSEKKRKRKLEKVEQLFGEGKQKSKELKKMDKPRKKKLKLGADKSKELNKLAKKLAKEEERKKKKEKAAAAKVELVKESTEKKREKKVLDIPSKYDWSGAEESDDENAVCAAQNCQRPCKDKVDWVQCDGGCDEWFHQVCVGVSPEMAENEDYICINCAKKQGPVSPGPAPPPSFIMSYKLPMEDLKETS
Method: Full length recombinant Flag tagged KDM5A protein was purified from Sf9 insect cells. The demethylation reaction buffer contained 50 mM HEPES pH 7.0, 0.01% Triton X-100, 0.5 mM ascorbate, 2 mM DTT, 1 μM α-ketoglutarate, and 100 μM Fe2(NH4)2(SO4)2. In a 10 μL demethylation reaction system, 2 nM recombinant KDM5A was added to compounds in the above buffer (Vt 5 uL) in a 384 well Proxi Plate (Perkin Elmer Corp.) and then 0.1 μM biotinylated H3K9me1 peptide (1-21 aa, New England Peptide, Vt 5 uL) was added to initiate the reaction (Vt 10 uL). (All protein/reagent concentrations are final concentrations.) Reactions were incubated for 30 minutes at room temperature, and then quenched by addition of 5 uL stop buffer (3 mM EDTA, 50 mM TrisCl pH 7.5, 0.01% Triton X-100, 0.01 mg/mL BSA) followed by addition of 5 uL of detection reagents (buffer as above without EDTA but with addition of 200 nM SA-XL665 (CisBio) and 2 nM Eu(W1024)-anti-H3K4Me1-2 antibody (PerkinElmer)). After a 30 minute incubation assays were read on a Perkin-Elmer Envision equipped with appropriate filters. IC50s were calculated using standard dose-response equations and relative to a Max (no inhibition) and Min (no enzyme or quenched enzyme) controls.

KDM5A [2] = target: T1, KDM5A; assay: KDM5A Demethylase Assay (MassSpec Assay-A); type: biochemical; settings: full length recombinant Flag tagged KDM5A, 20 nM; MassSpec readout; biotinylated H3K9me1 peptide 4.0 μM; read-out: A KDM5A MS (IC50)
Method: Full length recombinant Flag tagged KDM5A protein was purified from […] insect cells. The demethylation reaction buffer contained 50 mM TrisCl pH 7.4, 0.01% Triton X-100, 0.025 mg/mL BSA, 1 mM ascorbate (Cat# A4034, Sigma Aldrich), 2 mM TCEP (Cat# D9779, Sigma Aldrich), 2.0 μM α-ketoglutarate (# K2010, Sigma Aldrich) and 50 μM Fe2(NH4)2(SO4)2 (Cat# F1543, Sigma Aldrich). In a 25 μL demethylation reaction system, 20 nM recombinant KDM5A and was incubated with compounds for 10 minutes in the above buffer, and then […] (# K2010, Sigma Aldrich), 4.0 μM biotinylated H3K9me1 peptide (1-21 aa), and Fe2(NH4)2(SO4)2 were added to initiate the reaction. (All reagent concentrations are final reagent concentrations.) Reactions were incubated for 30 minutes at room temperature, and then quenched by addition of an equal volume of 1% formic acid. After termination, plates were sealed and frozen at −80° C. for analysis.

| IC50 (KDM5A [1]) | IC50 (KDM5A [2]) | Compound |
| --- | --- | --- |
| 0.0332 µM |  | Cc1ccc(-n2cc(-c3cnn4c(=O)c(C5CC5)c(C)[nH]c34)cn2)nc1 [Example 27, 6-cyclopropyl-5-methyl-3-(1-(5-methylpyridin-2-yl)-1H-pyrazol-4-yl)pyrazolo[1,5-a]pyrimidin-7(4H)-one] |
| 0.0322 µM |  | O=c1c2c([nH]c3c(-c4cnn(-c5ccccn5)c4)cnn13)CCC2 [Example 42, 3-(1-(pyridin-2-yl)-1H-pyrazol-4-yl)-6,7-dihydro-4H-cyclopenta[d]pyrazolo[1,5-a]pyrimidin-8(5H)-one] |
| 0.0234 µM |  | Cc1[nH]c2c(-n3cnc(-c4ccccn4)c3)cnn2c(=O)c1C(C)C [Example 46, 6-isopropyl-5-methyl-3-(4-(pyridin-2-yl)-1H-imidazol-1-yl)pyrazolo[1,5-a]pyrimidin-7(4H)-one] |
|  | 0.453 µM | CCc1c(C)[nH]c2c(-n3cnc(-c4cscn4)c3)cnn2c1=O [Example 53, 6-Ethyl-5-methyl-3-(4-(thiazol-4-yl)-1H-imidazol-1-yl)pyrazolo[1,5-a]pyrimidin-7(4H)-one] |
|  | 0.538 µM | CCc1c(C)[nH]c2c(-n3cnc(-c4ncccn4)c3)cnn2c1=O [Example 54, 6-ethyl-5-methyl-3-(4-(pyrimidin-2-yl)-1H-imidazol-1-yl)pyrazolo[1,5-a]pyrimidin-7(4H)-one] |
|  | 0.0945 µM | CCc1c(C)[nH]c2c(-n3cnc(C(N)=O)c3)cnn2c1=O [Example 55, 1-(6-Ethyl-5-methyl-7-oxo-4,7-dihydropyrazolo[1,5-a]pyrimidin-3-yl)-1H-imidazole-4-carboxamide] |
|  | 0.276 µM | CCc1c(C)[nH]c2c(-c3nnc(C(N)=O)o3)cnn2c1=O [Example 56, 5-(6-Ethyl-5-methyl-7-oxo-4,7-dihydropyrazolo[1,5-a]pyrimidin-3-yl)-1,3,4-oxadiazole-2-carboxamide] |
|  | 0.268 µM | CCc1c(C)[nH]c2c(-c3nnc(-c4ccccn4)o3)cnn2c1=O [Example 57, 6-Ethyl-5-methyl-3-(5-(pyridin-2-yl)-1,3,4-oxadiazol-2-yl)pyrazolo[1,5-a]pyrimidin-7(4H)-one] |
|  | 0.332 µM | CCc1c(C)[nH]c2c(-c3nc(C(N)=O)no3)cnn2c1=O [Example 58, 5-(6-Ethyl-5-methyl-7-oxo-4,7-dihydropyrazolo[1,5-a]pyrimidin-3-yl)-1,2,4-oxadiazole-3-carboxamide] |
|  | 0.518 µM | CCc1c(C)[nH]c2c(-c3nc(-c4ccccn4)no3)cnn2c1=O [Example 59, 6-Ethyl-5-methyl-3-(3-(pyridin-2-yl)-1,2,4-oxadiazol-5-yl)pyrazolo[1,5-a]pyrimidin-7(4H)-one] |
|  | 4 µM | CCc1c(C)[nH]c2c(-c3cc(-c4ccccn4)on3)cnn2c1=O [Example 60, 6-Ethyl-5-methyl-3-(5-(pyridin-2-yl)isoxazol-3-yl)pyrazolo[1,5-a]pyrimidin-7(4H)-one] |
|  | 0.861 µM | CCc1c(C)[nH]c2c(-c3cnn(-c4nccc5ccccc45)c3)cnn2c1=O [Example 66, 6-ethyl-3-(1-(isoquinolin-1-yl)-1H-pyrazol-4-yl)-5-methylpyrazolo[1,5-a]pyrimidin-7(4H)-one] |
|  | 0.363 µM | CCc1c(C)[nH]c2c(-c3cnn(-c4ncccc4C)c3)cnn2c1=O [Example 67, 6-ethyl-5-methyl-3-(1-(3-methylpyridin-2-yl)-1H-pyrazol-4-yl)pyrazolo[1,5-a]pyrimidin-7(4H)-one] |
|  | 0.0369 µM | CCc1c(C)[nH]c2c(-c3cnn(-c4cc5ccccc5cn4)c3)cnn2c1=O [Example 68, 6-ethyl-3-(1-(isoquinolin-3-yl)-1H-pyrazol-4-yl)-5-methylpyrazolo[1,5-a]pyrimidin-7(4H)-one] |
|  | 0.233 µM | CCc1c(C)[nH]c2c(-c3cnn(-c4cccnn4)c3)cnn2c1=O [Example 69, 6-ethyl-5-methyl-3-(1-(pyridazin-3-yl)-1H-pyrazol-4-yl)pyrazolo[1,5-a]pyrimidin-7(4H)-one] |
|  | 3.73 µM | CCc1c(C)[nH]c2c(-c3cnn(-c4cccc(OC)n4)c3)cnn2c1=O [Example 70, 6-ethyl-3-(1-(6-methoxypyridin-2-yl)-1H-pyrazol-4-yl)-5-methylpyrazolo[1,5-a]pyrimidin-7(4H)-one] |
|  | 0.0263 µM | CCc1c(C)[nH]c2c(-c3cnn(-c4cc(C)ccn4)c3)cnn2c1=O [Example 71, 6-ethyl-5-methyl-3-(1-(4-methylpyridin-2-yl)-1H-pyrazol-4-yl)pyrazolo[1,5-a]pyrimidin-7(4H)-one] |
|  | 0.076 µM | CCc1c(C)[nH]c2c(-c3cnn(-c4cnccn4)c3)cnn2c1=O [Example 72, 6-ethyl-5-methyl-3-(1-(pyrazin-2-yl)-1H-pyrazol-4-yl)pyrazolo[1,5-a]pyrimidin-7(4H)-one] |
|  | 0.0537 µM | Cc1[nH]c2c(-n3cnc(-c4ccccn4)c3)cnn2c(=O)c1C [Example 73, 5,6-dimethyl-3-(4-(pyridin-2-yl)-1H-imidazol-1-yl)pyrazolo[1,5-a]pyrimidin-7(4H)-one] |
|  | 0.996 µM | CCc1c(C)[nH]c2c(-n3cnc(C(=O)NC)c3)cnn2c1=O [Example 74, 1-(6-ethyl-5-methyl-7-oxo-4,7-dihydropyrazolo[1,5-a]pyrimidin-3-yl)-N-methyl-1H-imidazole-4-carboxamide] |
|  | 0.178 µM | CCc1c(C)[nH]c2c(-n3cnc(C(=O)N(C)C)c3)cnn2c1=O [Example 75, 1-(6-ethyl-5-methyl-7-oxo-4,7-dihydropyrazolo[1,5-a]pyrimidin-3-yl)-N,N-dimethyl-1H-imidazole-4-carboxamide] |
|  | 3.38 µM | CCc1c(C)[nH]c2c(-n3ccnc3C)cnn2c1=O [Example 77, 6-ethyl-5-methyl-3-(2-methyl-1H-imidazol-1-yl)pyrazolo[1,5-a]pyrimidin-7(4H)-one] |
|  | 43.2 µM | CCc1c(-c2ccccc2)[nH]c2c(-n3ccnc3)cnn2c1=O [Example 79, 6-ethyl-3-(1H-imidazol-1-yl)-5-phenylpyrazolo[1,5-a]pyrimidin-7(4H)-one] |
|  | 29.4 µM | CCc1c(C)[nH]c2c(-n3cnc(I)c3)cnn2c1=O [Example 80, 6-ethyl-3-(4-iodo-1H-imidazol-1-yl)-5-methylpyrazolo[1,5-a]pyrimidin-7(4H)-one] |
|  | 3.05 µM | CCc1c(C)[nH]c2c(-n3cncc3I)cnn2c1=O [Example 81, 6-ethyl-3-(5-iodo-1H-imidazol-1-yl)-5-methylpyrazolo[1,5-a]pyrimidin-7(4H)-one] |
|  | 80 µM | CCc1c(C)[nH]c2c(-n3cnc4ccccc43)cnn2c1=O [Example 82, 3-(1H-benzo[d]imidazol-1-yl)-6-ethyl-5-methylpyrazolo[1,5-a]pyrimidin-7(4H)-one] |
